How the values were obtained:
MCA205 tumor = experiment: Growth of transplantable tumors with chemotherapy; assay type: in vivo, mice; details: for tumor growth, combined with MTX: immunocompetent wild type mice, agent given before and with mitoxanthrone
Method: C57BL/6 mice (Charles River Laboratory, Lentilly, France) were bred and maintained according to both the FELASA and the Animal Experimental Ethics Committee Guidelines (Val de Marne, France). Mice were housed in a temperature-controlled environment with 12 h light/dark cycles and received food and water ad libitum. For HC-related experiments, mice were injected intraperitoneally with a single 100 mg/kg dose and 6 h later were sacrificed and tissues were immediately frozen in liquid nitrogen. For DCA- and DMKG-related experiments, mice were subjected to 24 h starvation and injected intraperitoneally each 8 h with a 100 mg/kg of either DCA or DMKG solution prepared in PBS. After 24 h of starvation, mice were sacrificed and tissues were immediately frozen in liquid nitrogen after extraction and homogenized two cycles for 20 s at 5,500 rpm using Precellys 24 tissue homogenator (Bertin Technologies, Montigny-le-Bretonneux, France) in a 20 mM Tris buffer (pH 7.4) containing 150 mM NaCl, 1% Triton X-100, 10 mM EDTA and Complete® protease inhibitor cocktail (Roche Applied Science). Tissue extracts were then centrifuged at 12,000 g at 4° C. and supernatants were collected. Protein concentration in the supernatants was evaluated by the bicinchoninic acid technique (BCA protein assay kit, Pierce Biotechnology, Rockford, Ill.). For hydroxycitrate-related weight-loss experiments, autophagy-deficient Atg4b^−/− mice were used. Atg4b^−/− mice have been previously described (Mariño et al., 2010). For HC-, spermidine-, and resveratrol-related experiments (tumour growth) mice were intraperitoneally injected with respectively 100 mg/kg, 50 mg/kg and 100 mg/kg doses at day 8 and day 9. At day 9, mice were intraperitoneally injected with 2 mg/kg single dose of Mitoxanthrone. For starvation related experiment (tumour growth) mice were treated as previously described (Fabrizio et. al., 2010).
Six weeks old female C57BL/6, Balb/c and nude athymic mice (Harlan Laboratory, Gannat, France) were bred and maintained according to both the FELASA and the Animal Experimental Inserm Ethics Committee Guidelines (project: 2012-69). Mice were housed in a temperature-controlled environment with 12 h light/dark cycles and received food and water ad libitum. For tumor growth experiments, procedures adopted are described as follows: 3×10^5 tumor cells were subcutaneously inoculated; when tumors became palpable (day −1 before chemotherapy), mice were first intraperitoneally injected with 100 mg/kg Potassium Hydroxycitrate, 10 mg/kg Acetylsalicylic Acid, 30 mg/kg SB204990, 30 mg/kg c646, 5 mg/kg Rapamycin, 25 mg/kg Resveratrol, 50 mg/kg Spermidine. At day 0, mice were intraperitoneally injected with the abovementioned compounds and with 5.17 mg/Kg Mitoxanthrone or 5 mg/kg Oxaliplatin. Tumor size was measured every two days. For starvation experiments, mice underwent 48 hour fasting followed by intreperitoneal injection of chemotherapeutics. For autophagy induction study, 6 hours after CRMs administration, mice were sacrificed and tissues were snap-frozen in liquid nitrogen after extraction and homogenized two cycles for 20 s at 5,500 rpm using Precellys 24 tissue homogenator (Bertin Technologies, Montigny-le-Bretonneux, France) in a 20 mM Tris buffer (pH 7.4) containing 150 mM NaCl, 1% Triton X-100, 10 mM EDTA and Complete® protease inhibitor cocktail (Roche Applied Science, Penzberg, Germany). Tissue extracts were then centrifuged at 12,000 g at 4° C. and supernatants were collected. Protein concentration in the supernatants was evaluated by the bicinchoninic acid technique (BCA protein assay kit, Pierce Biotechnology, Rockford, US.

[1] = tested on: U2OS cells stably expressing GFP-LC3; experiment: Autophagy in cultured cells: GFP-LC3 puncta formation and LC3 lipidation with or without bafilomycin A1; assay type: cell-based, human; details: for autophagic flux (GFP-LC3 puncta formation, LC3 lipidation): cells kept in rich medium, presence and absence of BafA1; for statin-induced autophagy upon supplementation: 12 hours, Simvastatin and Mevastatin
Method: U2OS, HeLa or H4 cells stably expressing GFP-LC3 were seeded in 96-well imaging plates (BD Falcon, Sparks, USA) 24 h before stimulation. Cells were treated with the indicated agents for 4 h. […] Images were analyzed for the presence of GFP-LC3 puncta in the cytoplasm by means of the BD Attovision software (BD Imaging Systems). Cell surfaces were segmented and divided into cytoplasmic and nuclear regions according to manufacturer standard proceedings. RB 2×2 and Marr-Hildreth algorithms were used to recognize cytoplasmic GFP-LC3 positive dots. Statistical analyses were implemented on the R software (http://www.r-project.org/). For quantitative analyses of protein acetylation, cell surfaces were segmented into cytoplasm and nuclei regions, and staining intensity of each individual cell was measured for statistical analysis.
Membranes were then sliced in different parts according to the molecular weight of the protein of interest to allow simultaneous detection of different antigens within the same experiment. Unspecific binding sites were saturated by incubating membranes for 1 h in 0.05% Tween 20 (v:v in TBS) supplemented with 5% non-fat powdered milk (w:v in TBS), followed by the overnight incubation with primary antibodies specific for acetylated-lysine, LC3, phospho-AMPK (Thr172), AMPK, phospho-ribosomal protein S6 kinase (Thr421/Ser424), ribosomal protein S6 kinase, or STQM/p62 (Santa Cruz Biotechnology). Development was performed with appropriate horseradish peroxidase (HRP)-labeled secondary antibodies (Southern Biotech, Birmingham, USA) plus the SuperSignal West Pico chemoluminescent substrate (Thermo Scientific-Pierce). An anti-glyceraldehyde-3-phosphate dehydrogenase antibody (Chemicon International, Temecula, USA) was used to control equal loading of lanes.
For immunoblotting, protein extracts obtained by cellular lysis via RIPA buffer were run on 4-12% Bis-Tris acrylamide (Invitrogen) and electrotransferred to […] PVDF membranes (Biorad, USA). Unspecific binding sites were saturated by incubating membranes for 1 h in 0.05% Tween 20 (v:v in TBS) supplemented with 5% non-fat powdered milk (w:v in TBS), followed by an overnight incubation with primary antibodies specific for, LC3, phospho-AMPK (Thr172), AMPK, phosphor-ACC (Ser79), ACC, phospho-ribosomal protein S6 kinase (Thr421/Ser424), ribosomal protein S6 kinase, or SQSTM/p62 (Abnova). Membranes were opportunely cut in order to allow simultaneous detection of different molecular weight proteins. Development was performed with horseradish peroxidase (HRP)-labeled secondary antibodies (Southern Biotech, Birmingham, USA) plus the SuperSignal West Pico chemo luminescent substrate (Thermo Scientific-Pierce). An anti-glyceraldehyde-3-phosphate dehydrogenase antibody (Abcam) and anti-Actin antibody (Abcam) were used to ensure equal loading of lanes. Quantification was performed by densitometry by means of Image J software.
U2OS and H4 cells stably expressing GFP-LC3 were seeded in 96-well or 384-well imaging plates (BD Falcon, Sparks, USA). 24 h before stimulation, ells were treated with the indicated agents for 6 hours in absence of lysososomal ATPase inhibitors and for 3 hours in presence of Bafilomycin A1. […] Images were analyzed for the detection of GFP-LC3 puncta in the cytoplasm by means of the BD Attovision software (BD Imaging Systems. Cellular regions of interest, cytoplasm and nucleus, were defined and segmented according to standard proceedings. RB 2×2 and Marr-Hildreth algorithms were employed to allow the detection of GFP LC3 puncta. Statistical analyses were conducted using the R and Prism softwares (http://www.r-project.org/). For quantitative analyses of protein acetylation, cell surfaces were segmented intocytoplasmic and nucleic regions, and staining intensity of each individual cell was measured for statistical analysis.

AcCoA levels = experiment: Targeted analysis of AcCoA levels in cultured cells (HPLC-MS); assay type: cell-based, human; details: cells kept in rich medium
Method: Cells were trypsinized, pelleted at 1000 rpm for 4 min, washed with PBS and pelleted again at 1000 rpm for 4 min. Cells were then resuspended in 5 ml of ice-cold hyposmotic buffer and keep on ice for 5 min. Cells were broken to release nuclei using a pre-chilled Dounce homogenizer (20 strokes with a tight pestle) and then were then centrifuged at 228 g.
For in vitro experiments, cell pellets were resuspended in 300 μL of water with HEPES and EDTA (pH 7.4) at 1 mM containing internal standard acetylcoenzyme A (2-C13) at 1 mg/L, vortexed and heated at 100° C. for 1 min. Samples were incubated in liquid nitrogen for 1 min and thawed at room temperature two times. They were let for 1 h at −20° C. and centrifuged at 4° C. during 15 min at 13,000 g. Supernatants were transferred in HPLC vials and injected in HPLC/MS or kept at −80° C. until injection. For in vivo experiments, frozen tissues were placed in ice-cold homogenization tubes containing ceramic beads. Five μL of ice-cold methanol/water (80/20; v/v) were added for 1 mg of tissue. Tissues were homogenized two times for 20 s at 5,500 rpm using Precellys 24 tissue homogenator (Bertin Technologies, Montigny-le-Bretonneux, France). Samples were placed 10 min on ice. Next they were centrifuged at 4° C. during 15 min at 13,000 g. Supernatants were transferred in HPLC vials and injected in HPLC-MS system or kept at −80° C. until injection.
Targeted analyses were performed on Rapid Resolution Liquid Chromatography (RRLC) 1200SL system (Agilent Technologies, Waldbronn, Germany) coupled to a Triple Quadruple QQQ 6410 mass spectrometer (Agilent Technologies). RRLC analysis was done on 150×2.1 mm, 3.5 μm Eclipse Plus SB-Aq column with a pre-column 30 mm×2.1 mm 3.5 μm Eclipse plus (Agilent Technologies) with water containing 10 mmol/L of ammonium acetate and 0.01% of acetic acid in channel A and acetonitrile in channel B in gradient mode at a flow rate of 0.3 mL·min^−1: t=0 min 2% B; t=9 min 95% B; t=11 min 95% B; re-equilibration time of 3 min. Mass spectrometer analysis was done in positive electrospray ionization mode at +4 kV on the QQQ system operating in MRM mode. MRM transitions were optimized with standard of AcCoA and AcCoA A 2-C^13 with direct infusion. Two transitions were recorded for each compound; • AcCoA 810>303 CE (collision energy) 28V; fragmentor 180V • 810>428 CE 20V • AcCoA 2-C13 812>305 CE 28V; fragmentor 180V • 812>428 CE 24V […]

`O=C(O)C[C@]1(O)C[C@H](CCCCCCc2ccc(Cl)cc2Cl)OC1=O` (relative stereo) [SB-204990, (3R,5S)-rel-5-[6-(2,4-Dichlorophenyl)hexyl]tetrahydro-3-hydroxy-2-oxo-3-furanacetic acid] was tested, and the “tumor growth, combined with MTX” value (MCA205 tumor) was “HC could be replaced”, the “tumor growth, combined with MTX” value (MCA205 tumor; listed as SB204990) was “can enhance chemotherapy efficacy” and the “tumor growth, combined with MTX, immunodeficient mice” value (MCA205 tumor; nu/nu (nude athymic) mice) was “failed”. For the same compound, the “autophagic flux (GFP-LC3 puncta formation, LC3 lipidation)” value (shortened to “autophagic flux”) [1] was “stimulated autophagic flux in cultured cancer cells” and the “autophagic flux” value ([1]; listed as SB204990) was “induce autophagic flux”.

In the case of `CC1COC(=O)C1` (centres unmarked) [3-methylbutyrolactone], the “autophagic flux” value [1] was “marked increase in GFP-LC3 puncta”.

With `COc1ccc(-c2ccccc2)cc1NS(=O)(=O)c1cc(Cl)cc(Cl)c1O` [BMS-303141, 3 5-Dichloro-2-hydroxy-N-(4-methoxy[1,1′-biphenyl]-3-yl)-benzenesulfonamide] the “autophagic flux” value [1] was “stimulated autophagic flux in cultured cancer cells” and the “autophagic flux” value ([1]; listed as BMS303141) was “induce autophagic flux”.

`C1CCC(C(CC2CCCCN2)C2CCCCC2)CC1` (centres unmarked) [PHX, perhexiline] was tested, and the AcCoA levels (AcCoA levels) was “reduced AcCoA cellular levels” and the “autophagic flux” value [1] was “induced signs of autophagy”.

`CCCCCCCCCCCCCCCc1cccc(O)c1C(=O)O` [anacardic acid, 6-pentadecylsalicylic acid] was tested, and the “autophagic flux” value [1] was “marked increase in GFP-LC3 puncta”.

In the case of `COc1cc(/C=C/C(=O)CC(=O)/C=C/c2ccc(O)c(OC)c2)ccc1O` [curcumin], the “autophagic flux” value [1] was “marked increase in GFP-LC3 puncta”.

In the case of `CC(O)(CCO)CC(=O)O` (centres unmarked) [mevalonate], the “statin-induced autophagy upon supplementation” value [1] was “only suppresses statin-induced autophagy” and the “statin-induced autophagy upon supplementation” value ([1]; listed as Mevalonate) was “reverts statins-induced”.

Source: patent publication US11040052B2, “Methods and pharmaceutical compositions for modulating autophagy in a subject in need thereof” (INSERM (INSTITUT NATIONAL DE LA SANTE ET DE LA RECHERCHE …, priority 2013, dated 2021)
